From ChEMBL document CHEMBL1201862, “PubChem BioAssay data set” (2004)
Calls of active or inactive are those of the source. Rule as the data show it, for most assays here: actives have a measured EC50 and inactives only a lower limit.

How the values were obtained:
[1] = luciferase reporter signal suppression in cells – H4 neuroglioma cells, luminescence, dose response (AID 1990); assay type: functional, cell-based
[2] = alpha-synuclein stem-loop luciferase translation blockers – H4 neuroglioma cells, luminescence, confirmation (AID 1988); assay type: functional, cell-based
[3] = Luminescence Cell-Based Dose Response HTS to Identify Inhibitors of 5'UTR Stem-Loop Driven Prion Protein mRNA Translation in H4 Neuroglioblastoma Cells. [Related pubchem assays: 1827 (Project Summary), 1813 (Primary HTS)]; assay type: functional
[4] = test system: INS1; assay: INS-1E survival protection against cytokine death – cell-based, luminescence, retest, dose response (AID 449756); assay type: functional; conditions: Rattus norvegicus, INS1;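 also: cell death triggered by IL-1 beta plus TNF-alpha plus IFN-gamma mixture; protective hits raise ATP signal compared with cytokine alone wells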
[5] = biological target: T1, Heat shock factor protein 1 (Mus musculus, UniProt P38532); assay: decrease of HSF1-responsive luciferase luminescence – cell-based, NIH3T3, dose retest, confirmation (AID 2382); assay type: functional;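 also: NIH3T3 fibroblasts with HSF1-driven luciferase reporter stressed by proteasome inhibitor MG132; luminescence from HSF1-driven luciferase expression after 8 hours of MG132 stress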
T1 sequence (P38532 whole entry): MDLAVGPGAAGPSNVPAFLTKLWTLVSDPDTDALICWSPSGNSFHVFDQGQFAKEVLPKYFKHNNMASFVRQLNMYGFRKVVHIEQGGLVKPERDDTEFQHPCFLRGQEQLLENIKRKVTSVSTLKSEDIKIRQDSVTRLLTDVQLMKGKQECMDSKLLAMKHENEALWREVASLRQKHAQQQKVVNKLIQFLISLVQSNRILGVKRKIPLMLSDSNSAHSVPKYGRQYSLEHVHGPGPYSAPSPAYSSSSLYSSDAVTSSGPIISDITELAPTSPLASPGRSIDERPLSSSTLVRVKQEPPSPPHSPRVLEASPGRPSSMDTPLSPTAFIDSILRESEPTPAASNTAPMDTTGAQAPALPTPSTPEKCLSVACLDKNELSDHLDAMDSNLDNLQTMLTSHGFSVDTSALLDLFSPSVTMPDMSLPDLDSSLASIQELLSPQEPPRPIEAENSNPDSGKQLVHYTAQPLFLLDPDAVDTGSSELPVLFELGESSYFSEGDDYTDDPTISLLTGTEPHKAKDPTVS

[6] = reduction of Shn3 3'UTR-driven luciferase in osteoblasts – cell-based, Clone20 osteoblasts, firefly luciferase, cherry-picked, dose response (AID 624132); assay type: functional;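 also: firefly luciferase luminescence from reporter carrying the Shn3 3'UTR in osteoblasts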
[7] = non-specific 3'UTR reporter inhibition in Clone20-Shn3RL – cell-based, Renilla luciferase, cherry-picked, counter-screen for Shn3 inhibitor project, dose response (AID 624133); assay type: functional
[8] = loss of viability in HepG2 cells – cell-based, CellTiter-Glo, cherry-picked, cytotoxicity control for Shn3 inhibitor project, dose response (AID 624134); assay type: functional
[9] = cells; assay type: functional, cell-based
[10] = cells; assay type: functional, cell-based; remark: listed apart in the source
[11] = biological target: T2, Streptokinase A (Streptococcus pyogenes serotype M1, UniProt P10520); assay: viability-normalized secreted streptokinase activity reduction – plasminogen activation absorbance, OD405, dose response (AID 1914); assay type: functional, Streptococcus pyogenes M1 GAS;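 also: secreted streptokinase activity via plasminogen activation per viability signal from cell pellet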
T2 sequence (P10520 whole entry): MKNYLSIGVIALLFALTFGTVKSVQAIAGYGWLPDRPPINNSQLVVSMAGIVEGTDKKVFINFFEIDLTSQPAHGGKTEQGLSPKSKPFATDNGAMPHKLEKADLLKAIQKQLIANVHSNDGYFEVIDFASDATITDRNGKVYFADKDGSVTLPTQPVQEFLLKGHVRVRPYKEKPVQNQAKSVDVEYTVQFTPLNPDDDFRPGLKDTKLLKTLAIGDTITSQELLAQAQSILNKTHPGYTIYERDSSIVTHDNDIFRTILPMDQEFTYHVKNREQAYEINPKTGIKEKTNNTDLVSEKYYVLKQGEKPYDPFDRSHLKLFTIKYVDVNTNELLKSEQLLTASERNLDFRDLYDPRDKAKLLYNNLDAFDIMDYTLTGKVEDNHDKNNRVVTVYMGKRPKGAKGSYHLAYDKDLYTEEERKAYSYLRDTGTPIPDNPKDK

[12] = test system: Streptococcus; assay: GAS UMAA2166 growth inhibition – luminescence, BacTiterGlo, counter-screen for streptokinase expression inhibitor project, dose response (AID 1915); assay type: functional, organism-based;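 also: potency for reduction of bacterial viability or growth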
[13] = viability of uninfected HEp-2 cells – cell-based, HTS, cytotoxicity control for RSV inhibitor project, dose response (AID 2410); assay type: functional; conditions: human respiratory syncytial virus
[14] = biological target: Cytochrome P450 2C9 (Homo sapiens, UniProt P11712)
[15] = biological target: Paired box protein Pax-8 (Homo sapiens, UniProt Q06710); assay: PAX8 transcriptional activity inhibition in RMG-I – RMG-I cells, luciferase, cherry-pick, dose response (AID 687027); assay type: functional, cell-based;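 also: luciferase reporter driven by Pax8 target thyroperoxidase promoter measured by SteadyGlo luminescence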
Paired box protein Pax-8, sequence (Q06710 whole entry): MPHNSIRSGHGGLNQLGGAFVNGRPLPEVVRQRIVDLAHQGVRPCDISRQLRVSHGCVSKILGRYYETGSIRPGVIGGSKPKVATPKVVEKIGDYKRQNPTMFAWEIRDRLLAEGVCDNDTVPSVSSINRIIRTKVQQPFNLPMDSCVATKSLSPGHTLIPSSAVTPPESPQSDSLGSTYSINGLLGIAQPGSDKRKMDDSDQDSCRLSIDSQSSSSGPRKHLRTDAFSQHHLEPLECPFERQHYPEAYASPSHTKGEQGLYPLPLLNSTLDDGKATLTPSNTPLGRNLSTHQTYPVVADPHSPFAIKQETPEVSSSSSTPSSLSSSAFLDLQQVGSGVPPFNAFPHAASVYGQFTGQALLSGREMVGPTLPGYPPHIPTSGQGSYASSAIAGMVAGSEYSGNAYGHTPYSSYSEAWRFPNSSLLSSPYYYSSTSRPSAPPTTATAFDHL

Cytochrome P450 2C9, sequence (P11712 whole entry): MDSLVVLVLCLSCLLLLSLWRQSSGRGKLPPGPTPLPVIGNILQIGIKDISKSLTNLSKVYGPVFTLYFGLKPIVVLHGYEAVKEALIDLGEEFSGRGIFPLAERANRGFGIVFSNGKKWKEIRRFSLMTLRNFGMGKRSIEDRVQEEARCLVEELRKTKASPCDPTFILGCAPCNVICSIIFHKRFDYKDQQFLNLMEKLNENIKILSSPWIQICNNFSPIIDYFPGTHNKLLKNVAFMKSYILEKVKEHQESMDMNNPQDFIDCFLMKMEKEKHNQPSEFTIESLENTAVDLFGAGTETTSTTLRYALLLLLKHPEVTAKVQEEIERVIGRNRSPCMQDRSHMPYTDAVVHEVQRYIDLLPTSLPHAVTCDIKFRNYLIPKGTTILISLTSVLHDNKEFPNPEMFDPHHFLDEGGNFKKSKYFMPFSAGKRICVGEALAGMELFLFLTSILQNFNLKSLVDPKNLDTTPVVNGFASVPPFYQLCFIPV

Compound: COc1ccc(C2(C)NC(=O)N(CC(=O)Nc3ccc4c(c3)OCO4)C2=O)cc1OC (configuration not stated)
- EC50 [1]: > 120 µM (not active)
- EC50 [2]: > 120 µM (not active)
- EC50 [3]: > 120 µM (not active)

Compound: COC(=O)c1sccc1S(=O)(=O)Nc1ccc(N2CCCCC2)cc1
- AC50 [4]: 29 µM (active)

Compound: CCOc1ccc(C2N(c3ccc(F)cc3)C(=O)C3CCCN32)cc1OC (configuration not stated)
- EC50 [5]: > 195 µM (not active)

Compound: CO/C(O)=C1/C(C)=Nc2c(c(=O)n(C)c(=O)n2C)C1c1cccc(O)c1 (configuration not stated)
- EC50 [5]: 27.8 µM (active)

Compound: CC(=O)c1c(N2CCN(CCO)CC2)nc(=S)n(-c2ccccc2)c1C
- EC50 [5]: > 195 µM (not active)

Compound: COc1cccc(N2CCN(CC(=O)Nc3ccc(SC(F)F)cc3)CC2)c1
- EC50 [1]: > 120 µM (not active)
- EC50 [2]: > 120 µM (not active)
- EC50 [3]: > 120 µM (not active)

Compound: O=C1C=C(c2ccnc3cc(Cl)ccc23)C[C@@H](c2ccc3c(c2)OCO3)C1
- AC50 [6]: 1.36 µM (active)
- AC50 [7]: 0.312 µM (active)
- AC50 [8]: 27.6 µM (active)

Compound: COc1ccc(OCC(=O)NNC(=S)NC(=O)c2ccc(Br)o2)cc1
- AC50 [6]: 5.27 µM (active)
- AC50 [7]: 12.4 µM (active)
- AC50 [8]: > 70 µM (inactive)

Compound: COc1ccc(-c2nnc(NC(=O)c3ccc4c(c3)OCCO4)o2)cc1
- EC50 [1]: > 120 µM (not active)
- EC50 [2]: > 120 µM (not active)
- EC50 [3]: > 120 µM (not active)

Compound: CN(C)c1ccc(S(=O)(=O)NCC(=O)OCC(=O)Nc2cc(Cl)cc(Cl)c2)cc1[N+](=O)[O-]
- EC50 [9]: > 350 µM (not active)
- EC50 [10]: > 350 µM (not active)

Compound: O=C(NCc1cccnc1)Nc1ccc([N+](=O)[O-])cc1
- AC50 [4]: 11.8 µM (active)

Compound: CC(C)(C)c1csc(NNC(=O)c2ccc(Br)cc2)n1
- EC50 [9]: > 350 µM (not active)
- EC50 [11]: > 150 µM (not active)
- EC50 [12]: > 150 µM (not active)
- EC50 [10]: 21 µM (active)

Compound: CCOc1cc2sc(N3CCC(C(=O)NCCCN4CCCC4=O)CC3)nc2cc1Br
- CC50 [13]: 19.8 µM (active)

Compound: Cc1cccc2[nH]c(CN(C)C(=O)C3CCC(=O)N(C4CC4)C3)nc12 (configuration not stated)
- EC50 [9]: > 350 µM (not active)
- EC50 [10]: > 350 µM (not active)

Compound: COc1cc(C(=O)NC2CCCc3c2cnn3-c2ccccc2F)cc(OC)c1OC (configuration not stated)
- AC50 [6]: 0.781 µM (active)
- AC50 [7]: 4.13 µM (active)
- AC50 [8]: 6.29 µM (active)

Compound: CCN(CC)C(=O)c1cc2cc([N+](=O)[O-])ccc2s1
- AC50 [14]: 17.8 µM (inconclusive)
- EC50 [5]: > 195 µM (not active)

Compound: COc1ccc(OC)c(Nc2nc(NCCC(C)C)nc(N)c2[N+](=O)[O-])c1
- EC50 [9]: > 350 µM (not active)
- EC50 [10]: > 350 µM (not active)

Compound: CCO[C@@H]1OC(C(=O)NCc2ccccc2)=C[C@H](c2ccc3c(c2)OCO3)[C@H]1CCCO
- EC50 [5]: > 195 µM (not active)

Compound: CCc1noc(C)c1C(=O)Oc1ccc(N(C)S(=O)(=O)c2ccccc2)cc1
- CC50 [13]: 26.2 µM (active)

Compound: O=C(COC(=O)Cc1ccsc1)NCC12CC3CC(CC(C3)C1)C2
- EC50 [5]: > 195 µM (not active)

Compound: C/C(=N\NC1=NCCN1)c1ccc(N)c([N+](=O)[O-])c1
- EC50 [5]: > 195 µM (not active)

Compound: COc1cccc(C(=O)CN2C(=O)C(C)(C)Oc3ccc(C(=O)N4CCOCC4)cc32)c1
- EC50 [9]: > 350 µM (not active)
- EC50 [10]: > 350 µM (not active)

Compound: CCOc1ccc(Oc2nc(NCC(C)C)nc(N(C)C)n2)nn1
- EC50 [1]: 115 µM (active)
- EC50 [2]: > 120 µM (not active)
- EC50 [3]: > 120 µM (not active)

Compound: Cc1ccc(S(=O)(=O)c2cc3c(=O)n4cccc(C)c4nc3n(Cc3ccncc3)c2=N)cc1
- EC50 [1]: > 120 µM (not active)
- EC50 [2]: > 120 µM (not active)
- EC50 [3]: > 120 µM (not active)

Compound: CCCC(=O)C1=C(NCc2ccccc2)CC(C)(C)CC1=O
- EC50 [9]: > 350 µM (not active)
- EC50 [10]: > 350 µM (not active)

Compound: COc1ccccc1NC(=O)CN(C)S(=O)(=O)c1cccc2cccnc12
- EC50 [9]: > 350 µM (not active)
- EC50 [10]: > 350 µM (not active)

Compound: O=S(=O)(c1ccccc1F)N1CC[C@@H]2[C@@H](CO)Nc3ccc(C4=CCCCC4)cc3[C@@H]21
- AC50 [15]: 10.5 µM (active)

Compound: CC(=O)C(C)Oc1ccc2c3c(c(=O)oc2c1)CCCCC3 (configuration not stated)
- CC50 [13]: > 50 µM (active)

Compound: Cn1/c(=N/C(=O)C2CCCCC2)sc2cc([N+](=O)[O-])ccc21
- CC50 [13]: > 50 µM (active)

Compound: Cc1ccc(/C=C/C2=NN(Cc3ccccc3)C(=O)CC2)cc1
- CC50 [13]: 15 µM (active)

Compound: Cc1c(C(=O)C(=O)NCc2cccs2)c2ccccc2n1C
- EC50 [5]: > 195 µM (not active)

Compound: CCOC(=O)c1c(N)n(CCCOC(=O)c2ccco2)c2nc3ccccc3nc12
- EC50 [1]: > 120 µM (not active)
- EC50 [2]: 8.24 µM (active)
- EC50 [3]: > 120 µM (not active)

Compound: CC(=O)c1cccc(NS(=O)(=O)c2ccc(N/C=C/C(=O)c3ccc(F)cc3)cc2)c1
- AC50 [4]: 4.36 µM (active)

Compound: Cc1ccc(S(=O)(=O)N(C)C)cc1NC(=O)COC(=O)/C(=C/c1ccc(F)cc1)c1cccs1
- CC50 [13]: 29.7 µM (active)

Compound: OCc1nn2c(c1Br)NC(c1ccccc1)CC2C(F)(F)F (configuration not stated)
- EC50 [5]: > 195 µM (not active)

Compound: COc1ccc(OC)c(-c2cc(C(=O)N/N=C/c3cc(OC)c(OC)cc3OC)c3ccccc3n2)c1
- EC50 [5]: > 195 µM (not active)

Compound: Cc1ccc(F)cc1NC(=O)CSc1nc(Nc2ccccc2)nc(N2CCOCC2)n1
- EC50 [1]: 14.8 µM (active)
- EC50 [2]: 15.6 µM (active)
- EC50 [3]: > 120 µM (not active)

Compound: CCCCN(C(=O)c1ccc([N+](=O)[O-])s1)c1c(N)n(CCCC)c(=O)[nH]c1=O
- EC50 [5]: > 195 µM (not active)

Compound: O=S(=O)(c1ccc2c(c1)OCCO2)N1CCC(c2nc(O)c3nnn(Cc4cccc(F)c4)c3n2)CC1
- CC50 [13]: 31.9 µM (active)

Compound: CCOC(=O)c1oc2ccccc2c1NC(=O)CN1CCN(C)CC1
- EC50 [1]: 10.9 µM (active)
- EC50 [2]: 7 µM (active)
- EC50 [3]: 17.6 µM (active)

Compound: CC(=O)Nc1ccc(CN2CCC(CO)(CCOc3ccccc3)CC2)cc1
- EC50 [5]: > 195 µM (not active)

Compound: Cc1cc(C)[n+](Cc2ccccc2)cc1C(N)=O
- EC50 [9]: > 350 µM (not active)
- EC50 [10]: > 350 µM (not active)

Compound: O=C(Nc1ccc(F)cc1)c1cccnc1
- AC50 [4]: 14.5 µM (active)

Compound: Cc1cccc2sc(NC(=O)C3CSC4(C)CCC(=O)N34)nc12 (configuration not stated)
- EC50 [1]: > 120 µM (not active)
- EC50 [2]: > 120 µM (not active)
- EC50 [3]: > 120 µM (not active)

Compound: Cc1c(C(=O)NCc2ccc3c(c2)OCO3)oc2ccc(Br)cc12
- CC50 [13]: 19.1 µM (active)

Compound: O=C(O)COc1ccccc1/C=N/NC(=O)c1ccc2c(c1)OCCO2
- EC50 [5]: > 195 µM (not active)

Compound: Cc1ccccc1OCC(=O)Nc1ccc(N2CCN(C)CC2)c(Cl)c1
- EC50 [9]: > 350 µM (not active)
- EC50 [10]: > 350 µM (not active)

Compound: O=C(Nc1ccccn1)C1CCN(c2ncnc3c2nc2n3CCCCC2)CC1
- CC50 [13]: 18.5 µM (active)

Compound: O=C(Nc1ccc(Cl)c(Cl)c1)c1cccc(S(=O)(=O)NCc2cccnc2)c1
- AC50 [6]: 5.39 µM (active)
- AC50 [8]: 6.59 µM (active)

Compound: CN(Cc1ccccc1)C(=O)c1cccc(NC(=O)Cc2ccc([N+](=O)[O-])cc2)c1
- AC50 [6]: 16.8 µM (active)
- AC50 [8]: > 70 µM (inactive)

Compound: CCn1nc(NS(=O)(=O)c2ccc(NC(C)=O)cc2)c2cc3cccc(C)c3nc21
- EC50 [9]: > 350 µM (not active)
- EC50 [10]: > 350 µM (not active)

Compound: COC(=O)C1=C(N)Oc2cc(N(C)C)ccc2C1c1ccccc1OC (configuration not stated)
- EC50 [1]: 11.3 µM (active)
- EC50 [2]: 6.94 µM (active)
